Counter-ions that a name gives are not always drawn.
System: jejunum
Experiment: Transcriptional profiling on Affymetrix GeneChips, single dose, naïve mice: jejunum
Format: in vivo, C57BL/6 mice
Conditions: jejunum, 100DMF-vs-Veh
Description: Treated mice were sacrificed at 2, 7, or 12 hours. Tissues (liver, spleen, kidney, jejunum, cortex, hippocampus, striatum and whole blood) were collected and analyzed by transcriptional profiling on mouse Affymetrix GeneChips.
Tissues (liver, spleen, kidney, jejunum, cortex, hippocampus, striatum and whole blood) were collected and analyzed by transcriptional profiling on mouse Affymetrix GeneChips.
Animals were exposed to CO2 and whole blood collected via cardiac puncture. Two 100 μl aliquots of whole blood were collected in 1.5 mL microcentrifuge tubes and snap frozen in liquid nitrogen. Peripheral (liver, spleen, kidney and jejunum) and CNS brain (cerebellum, hippocampus, striatum and cortex) tissues were harvested and snap frozen in liquid nitrogen, with special care taken to collect tissues of similar size and from the same location. All samples were stored at −80° C. until RNA extraction was conducted.
For RNA preparation, frozen tissues were placed in 2 mL RNAse-free 96-well blocks with 1.5 mL QIAzol Lysis Reagent (QIAgen) and a 3.2 mm stainless steel bead (BioSpec Products, Bartlesville, Okla.). Tissues were disrupted for four cycles of 45 seconds in a Mini-Beadbeater (Biospec Products). RNA was extracted in chloroform and the aqueous phase was mixed with an equal volume of 70% ethanol. Extracted RNA was applied to RNeasy 96 plates and purified by the spin method according to the manufacturer's protocol (RNeasy 96 Universal Tissue Protocol, QIAgen, Hilden Germany).
Automated sample amplifications and biotin labelings were carried out using the NuGEN Ovation RNA Amplification system V2 (Cat #3100), Ovation WB reagent (Cat #1300) and Encore Biotin module (Cat #4200) (NuGEN Technologies, Inc, San Carlos, Calif.) according to manufacturer's recommendations using an Arrayplex automated liquid handler (Beckman Coulter, Indianapolis, Ind.). Two micrograms of biotin labeled sscDNA probe were hybridized to Affymetrix GeneChip Affymetrix HT_MG-430_PM plate arrays with modified conditions as described in Allaire et al. Washing and staining of the hybridized arrays were completed as described in the GeneChip Expression analysis technical manual for HT plate arrays using the Genechip® Array Station (Affymetrix, Santa Clara, Calif.) with modifications as described in Allaire et al. The processed GeneChip® plate arrays were scanned using GeneTitan scanner (Affymetrix, Santa Clara, Calif.).
Affymetrix scans were subject to quality control (QC) measures. These tests included a visual inspection of the distribution of raw signal intensities and an assessment of RNA degradation, relative log expression (RLE), and normalized unsealed standard error (NUSE). All sample scans that passed these QC metrics were included in the analysis.
All CEL files were subjected to GC-content-based Robust Multi-array Average (GCRMA) normalization (version 2.20.0) (Irizarry R A, et al. Nucleic Acids Res 2003; 31:e15; Li C, et al. Genome Biol 2001; 2:[…]0032). Expression levels were log (base 2) transformed.
All calculations and analyses were carried out using R (version 2.11.1) and Bioconductor computational tools (Gentleman R. Springer Science+Business Media 2005).

Question: Which results are given for COC(=O)/C=C/C(=O)OC [DMF, dimethyl fumarate]?
Answer: FC Tox3 (1436600_PM_at) (2 h): 1.70; FC Tsku (1440230_PM_at) (2 h): 1.61; FC Ugt2b5 (1419622_PM_at) (2 h): 3.40; FC Ugt2b35 (1439624_PM_at) (2 h): 3.22; FC Ugt2b36 (1455595_PM_at) (2 h): 2.07; FC Unc5cl (1429950_PM_at) (2 h): −1.53; FC probe 1441046_PM_at (2 h): 1.54; FC probe 1443118_PM_at (2 h): 1.91; FC probe 1444265_PM_at (2 h): 1.75; FC probe 1445980_PM_at (2 h): 2.92; FC probe 1446045_PM_at (2 h): 1.52; FC probe 1447411_PM_at (2 h): 2.88; FC probe 1459091_PM_at (2 h): 1.98; FC 9430069I07Rik (1431672_PM_at) (7 h): 2.76; FC Abcc3 (1428988_PM_at) (7 h): 1.88; FC Acsm5 (1437662_PM_at) (7 h): 1.60; FC Acss2 (1446542_PM_at) (7 h): 1.71; FC Akr1b8 (1448894_PM_at) (7 h): 8.53; FC Akr1c13 (1418672_PM_at) (7 h): 1.61; FC Akr1c19 (1455454_PM_at) (7 h): 2.07; FC Cbr1 (1460196_PM_at) (7 h): 1.65; FC Cbr3 (1427912_PM_at) (7 h): 22.39; FC Ces1e (1419510_PM_at) (7 h): 2.10; FC Ces1f (1424266_PM_s_at) (7 h): 3.58; FC Ces1g (1449486_PM_at) (7 h): 4.67; FC Ddc (1426215_PM_at) (7 h): 1.74; FC G6pd2 (1422327_PM_s_at) (7 h): 1.82; FC G6pdx (1448354_PM_at) (7 h): 1.54; FC Gclc (1424296_PM_at) (7 h): 2.06; FC Gclc (1455959_PM_s_at) (7 h): 1.88; FC Gsr (1421816_PM_at) (7 h): 2.83; FC Gss (1441931_PM_x_at) (7 h): 1.89; FC Gss (1448273_PM_at) (7 h): 1.97; FC Gsta2 (1421040_PM_a_at) (7 h): 5.81; FC Gsta2 (1421041_PM_s_at) (7 h): 1.72; FC Gsta3 (1423436_PM_at) (7 h): 4.27; FC Gsta3 (1423437_PM_at) (7 h): 3.89; FC Gstm1 (1416416_PM_x_at) (7 h): 3.19; FC Gstm1 (1425627_PM_x_at) (7 h): 3.45; FC Gstm1 (1448330_PM_at) (7 h): 3.40; FC Gstm2 (1416411_PM_at) (7 h): 1.58; FC Gstm3 (1427473_PM_at) (7 h): 2.82; FC Gstm3 (1427474_PM_s_at) (7 h): 1.79; FC Gstm4 (1424835_PM_at) (7 h): 3.83; FC Gstm6 (1422072_PM_a_at) (7 h): 1.94; FC Htatip2 (1451814_PM_a_at) (7 h): 1.51; FC Nqo1 (1423627_PM_at) (7 h): 2.31; FC Pir (1429001_PM_at) (7 h): 3.79; FC Setd4 (1425239_PM_at) (7 h): 1.90; FC Setd4 (1435405_PM_at) (7 h): 1.50; FC Setd4 (1460373_PM_a_at) (7 h): 1.50; FC Slc5a4b (1422757_PM_at) (7 h): 1.67; FC Txnrd1 (1424487_PM_x_at) (7 h): 1.60; FC Ugt2b5 (1419622_PM_at) (7 h): 3.42; FC Ugt2b35 (1439624_PM_at) (7 h): 2.66; FC Ugt2b36 (1455595_PM_at) (7 h): 2.23; FC Aldh1a7 (1418601_PM_at) (12 h): 1.65; FC Gstm1 (1416416_PM_x_at) (12 h): 3.56; FC Gstm2 (1416411_PM_at) (12 h): 2.04
